# Biological target: T1, HDAC6 enzyme (Homo sapiens, UniProt Q9UBN7)
# T1 construct: transducing full length HDAC6 gene into Sf-9 insect cells; GST; purchased SignalChem; host or cells: Sf-9 insect cells
# T1 sequence (Q9UBN7 1-1215): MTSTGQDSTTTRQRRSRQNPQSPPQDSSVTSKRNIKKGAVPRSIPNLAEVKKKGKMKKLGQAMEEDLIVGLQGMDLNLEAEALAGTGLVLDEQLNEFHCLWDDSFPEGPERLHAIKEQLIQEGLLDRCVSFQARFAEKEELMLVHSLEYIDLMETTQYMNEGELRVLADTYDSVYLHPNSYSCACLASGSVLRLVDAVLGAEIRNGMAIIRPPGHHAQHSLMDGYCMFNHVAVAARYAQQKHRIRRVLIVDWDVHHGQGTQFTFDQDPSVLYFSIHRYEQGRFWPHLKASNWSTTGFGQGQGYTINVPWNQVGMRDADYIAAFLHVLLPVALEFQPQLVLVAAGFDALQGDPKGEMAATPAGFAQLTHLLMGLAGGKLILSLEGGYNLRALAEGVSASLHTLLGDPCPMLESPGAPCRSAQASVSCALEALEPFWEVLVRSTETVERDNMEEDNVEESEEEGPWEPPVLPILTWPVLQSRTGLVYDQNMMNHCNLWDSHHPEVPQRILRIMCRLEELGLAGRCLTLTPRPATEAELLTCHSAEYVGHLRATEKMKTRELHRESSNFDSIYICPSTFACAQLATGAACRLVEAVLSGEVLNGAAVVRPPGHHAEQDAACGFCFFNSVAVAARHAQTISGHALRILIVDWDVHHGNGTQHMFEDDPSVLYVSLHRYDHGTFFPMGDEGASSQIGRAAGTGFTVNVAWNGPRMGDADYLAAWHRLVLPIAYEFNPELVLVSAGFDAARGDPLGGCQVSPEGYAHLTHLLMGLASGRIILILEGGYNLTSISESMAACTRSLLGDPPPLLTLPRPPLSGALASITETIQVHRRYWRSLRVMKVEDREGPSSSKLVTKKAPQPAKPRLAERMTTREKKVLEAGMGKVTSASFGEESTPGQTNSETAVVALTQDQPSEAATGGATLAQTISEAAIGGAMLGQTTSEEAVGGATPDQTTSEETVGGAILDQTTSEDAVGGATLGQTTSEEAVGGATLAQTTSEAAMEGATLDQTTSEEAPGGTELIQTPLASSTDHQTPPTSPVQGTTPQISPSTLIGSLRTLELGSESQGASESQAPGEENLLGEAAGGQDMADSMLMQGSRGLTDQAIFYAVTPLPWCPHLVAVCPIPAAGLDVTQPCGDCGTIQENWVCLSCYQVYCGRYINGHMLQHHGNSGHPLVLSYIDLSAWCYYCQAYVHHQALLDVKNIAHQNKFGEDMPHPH
# Assay: HDAC6 enzyme inhibitory activity (HDAC-Glo I/II Assay kit)
# Type: biochemical
# Settings: 10 μM; wells without enzyme = 100% inhibition
# Method: HDAC6 enzyme prepared by transducing full length HDAC6 gene into Sf-9 insect cells and purifying by GST affinity column were purchased from SignalChem. Using this enzyme, HDAC6 enzyme inhibitory activities of the compound of the present invention were evaluated. Enzymes were used after preserved at −70° C. HDAC6 enzyme inhibitory activity of the compound of the present invention was measured using HDAC-Glo™ I/II Assay kit (Promega) according to the following experimental method. The test compound diluted with assay buffer (24 mM Tris-HCl (pH 7.5), 1 mM MgCl2, 0.35 mM KCl, 135 mM NaCl, 0.6 mM Glutathione, 0.01% Tween-20) was added to a 384-well plate by each 2 μL. Then, HDAC6 enzyme solution diluted with assay buffer was added thereto by each 4 μL, and the plate was incubated at room temperature for 60 min. After incubated, HDAC substrate-Developer solution prepared according to Promega protocol attached to the assay kit was added to the 384-well plate by each 2 μL, and the enzyme reaction was started. After reacting at room temperature for 20 min, luminescence level was measured using plate reader Envision (PerkinElmer). The inhibitory activity of each compound of Example was calculated as a relative activity value when luminescence level in wells without enzyme is considered as 100% inhibition.
row,HDAC6 inhibitory rate (%) (10 μM),SMILES
1,100%,"COC(=O)N1CC[C@@H](c2ccc(F)cc2)[C@H](N2Cc3ccc(-c4nnc(C(F)F)o4)cc3C2=O)C1 (relative stereo) [Example 545, methyl (3S*,4S*)-3-(6-(5-(difluoromethyl)-1,3,4-oxadiazol-2-yl)-1-oxo-1,3-dihydro-2H-isoindol-2-yl)-4-(4-fluorophenyl)piperidine-1-carboxylate (optical isomer)]"
2,100%,"O=C1c2cc(-c3nnc(C(F)F)o3)cnc2CN1[C@@H]1CCCC[C@H]1Oc1ccc(F)cc1 (relative stereo) [Example 552, 3-(5-(difluoromethyl)-1,3,4-oxadiazol-2-yl)-6-((1R*,2R*)-2-(4-fluorophenoxy)cyclohexyl)-6,7-dihydro-5H-pyrrolo[3,4-b]pyridin-5-one (optical isomer)]"
3,100%,"O=C1c2cc(-c3nnc(C(F)F)o3)cnc2CN1[C@@H]1CCCC[C@H]1c1ccccn1 (relative stereo) [Example 588, 3-(5-(difluoromethyl)-1,3,4-oxadiazol-2-yl)-6-((1R*,2R*)-2-(pyridin-2-yl)cyclohexyl)-6,7-dihydro-5H-pyrrolo[3,4-b]pyridin-5-one (optical isomer)]"
4,99%,"O=C1c2cc(-c3nnc(C(F)F)o3)ccc2CN1[C@@H]1CCC(F)(F)C[C@@H]1c1ccccn1 (relative stereo) [Example 591, 6-(5-(difluoromethyl)-1,3,4-oxadiazol-2-yl)-2-((1R*,2S*)-4,4-difluoro-2-(pyridin-2-yl)cyclohexyl)isoindolin-1-one (optical isomer)]"

# Same assay, conditions: 10 μM; wells without enzyme = 100% inhibition; read-out: HDAC6 inhibitory rate (%) (10 μM)
row,SMILES,inhibition at 10 µM
1,"COC(=O)N1CC[C@@H](c2ccc(F)cc2)[C@H](N2Cc3ccc(-c4nnc(C(F)F)o4)cc3C2=O)C1 (relative stereo) [Example 544, methyl (3S*,4S*)-3-(6-(5-(difluoromethyl)-1,3,4-oxadiazol-2-yl)-1-oxo-1,3-dihydro-2H-isoindol-2-yl)-4-(4-fluorophenyl)piperidine-1-carboxylate (optical isomer)]",99%
2,"O=C1c2cc(-c3nnc(C(F)F)o3)cnc2CN1[C@@H]1CCCC[C@H]1Oc1ccc(F)cc1 (relative stereo) [Example 551, 3-(5-(difluoromethyl)-1,3,4-oxadiazol-2-yl)-6-((1R*,2R*)-2-(4-fluorophenoxy)cyclohexyl)-6,7-dihydro-5H-pyrrolo[3,4-b]pyridin-5-one (optical isomer)]",99%
3,"O=C1c2cc(-c3nnc(C(F)F)o3)ccc2CN1[C@@H]1CCC(F)(F)C[C@H]1c1ccccn1 (relative stereo) [Example 586, 6-(5-(difluoromethyl)-1,3,4-oxadiazol-2-yl)-2-((1R*,2R*)-4,4-difluoro-2-(pyridin-2-yl)cyclohexyl)isoindolin-1-one (Optical Isomer)]",100%
4,"O=C1c2cc(-c3nnc(C(F)F)o3)cnc2CN1[C@@H]1CCCC[C@H]1c1ccccn1 (relative stereo) [Example 587, 3-(5-(difluoromethyl)-1,3,4-oxadiazol-2-yl)-6-((1R*,2R*)-2-(pyridin-2-yl)cyclohexyl)-6,7-dihydro-5H-pyrrolo[3,4-b]pyridin-5-one (optical isomer)]",99%
5,"O=C1c2cc(-c3nnc(C(F)F)o3)ccc2CN1[C@@H]1CCC(F)(F)C[C@@H]1c1ccccn1 (relative stereo) [Example 590, 6-(5-(difluooromethyl)-1,3,4-oxadiazol-2-yl)-2-((1R*,2S*)-4,4-difluoro-2-(pyridin-2-yl)cyclohexyl)isoindolin-1-one (optical isomer)]",100%
6,"O=C(NC1CC(F)(F)CC[C@H]1N1Cc2ccc(-c3nnc(C(F)F)o3)cc2C1=O)OCc1ccccc1 (stereo in doubt) [Example 517, benzyl ((1S,2R)-2-(6-(5-(difluoromethyl)-1,3,4-oxadiazol-2-yl)-1-oxo-1,3-dihydro-2H-isoindol-2-yl)-5,5-difluorocyclohexyl) carbamate]",100%
7,"O=C1CCCN1[C@@H]1COCC[C@H]1N1Cc2ccc(-c3nnc(C(F)F)o3)cc2C1=O [Example 1, 6-(5-(difluoromethyl)-1,3,4-oxadiazol-2-yl)-2-((3S,4R)-3-(2-oxopyrrolidin-1-yl)tetrahydro-2H-pyran-4-yl)isoindolin-1-one]",101%
8,"O=C1CCCN1[C@@H]1CCCC[C@H]1N1Cc2ccc(-c3nnc(C(F)F)o3)cc2C1=O [Example 2, 6-(5-(difluoromethyl)-1,3,4-oxadiazol-2-yl)-2-((1R,2R)-2-(2-oxopyrrolidin-1-yl)cyclohexyl)isoindolin-1-one]",99%
9,"O=C1c2cc(-c3nnc(C(F)F)o3)ccc2CN1[C@@H]1CCCC[C@H]1N1CCCS1(=O)=O [Example 4, 6-(5-(difluoromethyl)-1,3,4-oxadiazol-2-yl)-2-((1R,2R)-2-(1,1-dioxido-1,2-thiazolidin-2-yl)cyclohexyl)isoindolin-1-one]",99%

# The remaining lines, values ahead:
row,inhibition at 10 µM,SMILES
1,99%,"CC(C)(C)OC(=O)N[C@@H]1CCCC[C@H]1N1Cc2ccc(-c3nnc(C(F)F)o3)cc2C1=O [Example 3, tert-butyl ((1R,2R)-2-(6-(5-(difluoromethyl)-1,3,4-oxadiazol-2-yl)-1-oxo-1,3-dihydro-2H-isoindol-2-yl)cyclohexyl)carbamate]"
2,100%,"CC(=O)N[C@@H]1CCCC[C@H]1N1Cc2ccc(-c3nnc(C(F)F)o3)cc2C1=O [Example 5, N-((1R,2R)-2-(6-(5-(difluoromethyl)-1,3,4-oxadiazol-2-yl)-1-oxo-1,3-dihydro-2H-isoindol-2-yl)cyclohexyl)acetamide]"
3,102%,"O=C1c2cc(-c3nnc(C(F)F)o3)ccc2CN1[C@@H]1CCCC[C@H]1NC(=O)C(F)(F)F [Example 6, N-((1R,2R)-2-(6-(5-(difluoromethyl)-1,3,4-oxadiazol-2-yl)-1-oxo-1,3-dihydro-2H-isoindol-2-yl)cyclohexyl)-2,2,2-trifluoroacetamide]"
4,99%,"CCC(=O)N[C@@H]1CCCC[C@H]1N1Cc2ccc(-c3nnc(C(F)F)o3)cc2C1=O [Example 7, N-((1R,2R)-2-(6-(5-(difluoromethyl)-1,3,4-oxadiazol-2-yl)-1-oxo-1,3-dihydro-2H-isoindol-2-yl)cyclohexyl)propanamide]"
5,101%,"O=C(N[C@@H]1CCCC[C@H]1N1Cc2ccc(-c3nnc(C(F)F)o3)cc2C1=O)OC1CC1 [Example 8, cyclopropyl ((1R,2R)-2-(6-(5-(difluoromethyl)-1,3,4-oxadiazol-2-yl)-1-oxo-1,3-dihydro-2H-isoindol-2-yl)cyclohexyl)carbamate]"
6,102%,"CC(C)C(=O)N[C@@H]1CCCC[C@H]1N1Cc2ccc(-c3nnc(C(F)F)o3)cc2C1=O [Example 9, N-((1R,2R)-2-(6-(5-(difluoromethyl)-1,3,4-oxadiazol-2-yl)-1-oxo-1,3-dihydro-2H-isoindol-2-yl)cyclohexyl)-2-methylpropanamide]"
7,99%,"COC(=O)N[C@@H]1CCCC[C@H]1N1Cc2ccc(-c3nnc(C(F)F)o3)cc2C1=O [Example 10, methyl((1R,2R)-2-(6-(5-(difluoromethyl)-1,3,4-oxadiazol-2-yl)-1-oxo-1,3-dihydro-2H-isoindol-2-yl)cyclohexyl)carbamate]"

# From patent publication US10435399B2, “HDAC6 inhibitory heterocyclic compound” (TAKEDA PHARMACEUTICAL COMPANY LIMITED, priority 2017, dated 2019)
